# Measurements from patent US20240408082A1, “METHODS FOR TREATING CANCERS AND TUMORS” (BEYONDSPRING PHARMACEUTICALS, INC., priority 2021, published 2024).
# How the values were obtained:
# small cell lung cancer = assay: 3D clonogenic assay, Example 1, small cell lung cancer; type: cell-based; conditions: n=7 models
# Experimental: (§1) In the present study, plinabulin was characterized for its ability to inhibit anchorage independent growth and ex vivo colony formation of tumor cells in semi-solid medium. The compound was investigated in 87 out of 93 originally planned tumor xenografts representing all major cancer types using a 3D clonogenic assay in a 96-well format with colony count based on image analysis as read-out. By using this assay, the investigational compound was assessed for the ability to inhibit anchorage independent growth and ex vivo colony formation of tumor cells in semi-solid medium.
# (§2) A master stock solution of plinabulin was prepared by dissolving the compound in DMSO at a concentration of 9.9 mM. Working stock solutions were prepared by diluting the master stock solution with DMSO to a concentration of 0.99 mM (330-fold the highest test concentration). Small aliquots of the master and working stock were stored at −20° C. […]
# (§3) Plinabulin was investigated in 87 PDX models representing a number of cancer types. […] The percentage of viable cells was determined in a Neubauer-hemocytometer using trypan blue exclusion. […]
# (§4) The clonogenic assay was carried out in a 96 well plate format using ultra low attachment plates. […] Cultures were incubated at 37° C. and 7.5% CO2 in a humidified atmosphere 13 days in total and monitored closely for colony growth using an inverted microscope. […]
# BXF 2775 = assay: 3D clonogenic assay, Example 1, BXF 2775; type: cell-based; conditions: model BXF 2775
# Experimental: as §1, §2, §3, §4
smiles,measurement,setting,value
"CC(C)(C)c1[nH]cnc1/C=c1\[nH]c(=O)/c(=C/c2ccccc2)[nH]c1=O [plinabulin, (3Z,6Z)-3-Benzylidene-6-{[5-(2-methyl-2-propanyl)-1H-imidazol-4-yl]methylene}-2,5-piperazinedione]",geom. mean absolute IC70,small cell lung cancer,0.035 µM
same,absolute IC70,BXF 2775,3 nM
